According to patent US20250154141A1 (University of Florida Research Foundation, Incorporated, priority 2021, published 2025):
Read-outs that look alike come from different tables or passages of the source.

Experiments:
[1] = system: MOLT-4; test: Cell viability assay (MTS) in MOLT-4 cells; assay type: cell-based; settings: Homo sapiens, MOLT-4, 48 hr, MTS, read-out: Anti-Cancer Activity IC50 (48 hr) MOLT-4
Method: (§1) Acute lymphoblastic leukemia cells (MOLT-4 and RS4; 11) were incubated with increasing concentrations of Bcl-xL degraders for 48 h. Cell viability was measured by tetrazolium-based MTS assay.

[2] = system: RS4; 11; test: Cell viability assay (MTS) in RS4; 11 cells; assay type: cell-based; settings: Homo sapiens, RS4-11, 48 hr, MTS, read-out: Anti-Cancer Activity IC50 (48 hr) RS4, 11
Method: as §1

SMILES	IC50 ([1]; Table 2) [nM]	IC50 ([2]; Table 2) [nM]	IC50 ([1]; Table 2A) [nM]	IC50 ([2]; Table 2A) [nM]
Cc1ncsc1-c1ccc([C@H](C)NC(=O)[C@@H]2C[C@@H](O)CN2C(=O)[C@@H](NC(=O)CCCCCC(=O)N2CCN(CC3CCN(CC4(C)CCC(c5ccc(Cl)cc5)=C(CN5CCN(c6ccc(C(=O)NS(=O)(=O)c7ccc(N[C@H](CCN8CCOCC8)CSc8ccccc8)c(S(=O)(=O)C(F)(F)F)c7)cc6)CC5)C4)CC3)CC2)C(C)(C)C)cc1 (stereo partly shown) [Compound 19]	< 20	20 to 100		
Cc1ncsc1-c1ccc([C@H](C)NC(=O)[C@@H]2C[C@@H](O)CN2C(=O)[C@@H](NC(=O)COCCOCc2cn(CCCC(=O)NCC3(C)CCC(c4ccc(Cl)cc4)=C(CN4CCN(c5ccc(C(=O)NS(=O)(=O)c6ccc(N[C@H](CCN7CCOCC7)CSc7ccccc7)c(S(=O)(=O)C(F)(F)F)c6)cc5)CC4)C3)nn2)C(C)(C)C)cc1 (stereo partly shown) [Compound 23]	500 to 10000	500 to 10000		
Cc1ncsc1-c1ccc([C@H](C)NC(=O)[C@@H]2C[C@@H](O)CN2C(=O)[C@@H](NC(=O)CCCCCNC(=O)c2ccc(N3CCN(CCN(C)CC4(C)CCC(c5ccc(Cl)cc5)=C(CN5CCN(c6ccc(C(=O)NS(=O)(=O)c7ccc(N[C@H](CCN8CCOCC8)CSc8ccccc8)c(S(=O)(=O)C(F)(F)F)c7)cc6)CC5)C4)CC3)cc2)C(C)(C)C)cc1 (stereo partly shown) [Compound 15]	20 to 100	20 to 100		
Cc1ncsc1-c1ccc([C@H](C)NC(=O)[C@@H]2C[C@@H](O)CN2C(=O)[C@@H](NC(=O)CCCCCNC(=O)c2ccc(N3CCN(CC4(C)CCC(c5ccc(Cl)cc5)=C(CN5CCN(c6ccc(C(=O)NS(=O)(=O)c7ccc(N[C@H](CCN8CCOCC8)CSc8ccccc8)c(S(=O)(=O)C(F)(F)F)c7)cc6)CC5)C4)CC3)cn2)C(C)(C)C)cc1 (stereo partly shown) [Compound 5]	20 to 100	100 to 500		

Other lines, results leading:

IC50 ([1]; Table 2) [nM]	IC50 ([2]; Table 2) [nM]	IC50 ([1]; Table 2A) [nM]	IC50 ([2]; Table 2A) [nM]	SMILES
100 to 500	20 to 100			Cc1ncsc1-c1ccc([C@H](C)NC(=O)[C@@H]2C[C@@H](O)CN2C(=O)[C@@H](NC(=O)CCCCCCC(=O)N2CCN(C[C@]3(C)CCC(c4ccc(Cl)cc4)=C(CN4CCN(c5ccc(C(=O)NS(=O)(=O)c6ccc(N[C@H](CCN7CCc8cccnc8C7)CSc7ccccc7)c(S(=O)(=O)C(F)(F)F)c6)cc5)CC4)C3)CC2)C(C)(C)C)cc1 [Compound 71]
		< 20	< 20	Cc1ncsc1-c1ccc([C@H](C)NC(=O)[C@@H]2C[C@@H](O)CN2C(=O)[C@@H](NC(=O)CCCCC(=O)N2CCC(N3CCN(C[C@]4(C)CCC(c5ccc(Cl)cc5)=C(CN5CCN(c6ccc(C(=O)NS(=O)(=O)c7ccc(N[C@H](CCN8CCCOCC8)CSc8ccccc8)c(S(=O)(=O)C(F)(F)F)c7)cc6)CC5)C4)CC3)CC2)C(C)(C)C)cc1 [Compound 120]
< 20	< 20			Cc1ncsc1-c1ccc([C@H](C)NC(=O)[C@@H]2C[C@@H](O)CN2C(=O)[C@@H](NC(=O)CCCCCCC(=O)N2CCN(C[C@]3(C)CCC(c4ccc(Cl)cc4)=C(CN4CCN(c5ccc(C(=O)NS(=O)(=O)c6ccc(N[C@H](CCN7CCCCCC7)CSc7ccccc7)c(S(=O)(=O)C(F)(F)F)c6)cc5)CC4)C3)CC2)C(C)(C)C)cc1 [Compound 60, (2S,4R)-1-((S)-2-(8-(4-(((R)-6-((4-(4-(((4-(((R)-4-(azepan-1-yl)-1-(phenylthio)butan-2-yl)amino)-3-((trifluoromethyl)sulfonyl)phenyl)sulfonyl)carbamoyl)phenyl)piperazin-1-yl)methyl)-4′-chloro-4-methyl-2,3,4,5-tetrahydro-[1,1′-biphenyl]-4-yl)methyl)piperazin-1-yl)-8-oxooctanamido)-3,3-dimethylbutanoyl)-4-hydroxy-N—((S)-1-(4-(4-methylthiazol-5-yl)phenyl)ethyl)pyrrolidine-2-carboxamide]
		< 20	< 20	Cc1ncsc1-c1ccc([C@H](C)NC(=O)[C@@H]2C[C@@H](O)CN2C(=O)[C@@H](NC(=O)COCCCNC(=O)c2ccc(N3CCN(C[C@]4(C)CCC(c5ccc(Cl)cc5)=C(CN5CCN(c6ccc(C(=O)NS(=O)(=O)c7ccc(N[C@H](CCN8CCCOCC8)CSc8ccccc8)c(S(=O)(=O)C(F)(F)F)c7)cc6)CC5)C4)CC3)nn2)C(C)(C)C)cc1 [Compound 111]
